This note sets out measurements from patent publication US12648946B2, “Combination of antibody-pyrrolobenzodiazepine derivative conjugate and PARP inhibitor” (DAIICHI SANKYO COMPANY, LIMITED, priority 2019, dated 2026).

Like-named read-outs stand apart in the source and are kept apart here.

Assay [1] relates to human breast cancer cell line JIMT-1. As to the kind of experiment: Antitumor test (2), subcutaneous xenograft. Type of assay: in vivo, mouse. To be noted: single administration. On the procedure:
Mouse: Five- to six-week-old female BALB/c nude mice (Charles River Laboratories Japan, Inc.) were subjected to experiment. Assay and calculation formula: In all of the studies, the major axis and minor axis of a tumor were measured twice a week by using an electronic digital caliper ([…] Corp.), and the tumor volume (mm^3) was calculated. The calculation formula is as shown below. [formula] Each of the anti-CLDN6 antibody-drug conjugate ADC1, the anti-HER2 antibody-drug conjugate ADC2, and the anti-TROP2 antibody-drug conjugate ADC3 was diluted with ABS buffer (10 mM acetate buffer (pH 5.5), 5% sorbitol), and a liquid volume of 10 mL/kg was intravenously administered into the tail vein. […] LLC)/Dulbecco's Phosphate-Buffered Saline, and then a liquid volume of 10 mL/kg was intraperitoneally administered. […] LLC)/Dulbecco's Phosphate-Buffered Saline, and then a liquid volume of 10 mL/kg was orally administered. Niraparib was dissolved in DMSO, diluted with 0.5% methylcellulose, and then a liquid volume of 10 mL/kg was orally administered. The described method is common to Examples 34 to 37. […]

Assay [2] has as its system human ovarian cancer cell line SK-OV-3. As to the kind of experiment: Cell growth inhibition test (4). Type of assay: cell-based. To be noted: for IC50: SK-OV-3, 144 h. Here is the method: Cells of the human ovarian cancer cell line SK-OV-3 purchased from ATCC (American Type Culture Collection) were used for evaluation. Cells were prepared with McCoy's 5A (Modified) Medium containing 10% fetal bovine serum (GE Healthcare) (Thermo Fisher Scientific; hereinafter, referred to as McCoy's SA medium) to reach 1.25×10^4 cells/mL, and 80 μL portions of them were added into a 96-well cell culture microplate. After addition of the cells, the cells were cultured at 37° C. and 5% CO2 overnight.
On the next day, 10 μL portions of pyrrolobenzodiazepine derivative A diluted with McCoy's 5A medium to 100 pM, 50 pM, 25 pM, 12.5 pM, 6.25 pM, 3.13 pM, 1.56 pM, or 0.78 pM were added to the microplate. To each well without pyrrolobenzodiazepine derivative A, 10 μL of McCoy's 5A medium was added. Further, 10 μL portions of talazoparib prepared with McCoy's 5A medium to reach 5 nM were added to the microplate. To each well without talazoparib, 10 μL of McCoy's 5A medium was added. Thereafter, the microplate was cultured at 37° C. and 5% CO2 for 6 days. After culturing, the microplate was taken out of the incubator, and left to stand at room temperature for 30 minutes. CellTiter-Glo Luminescent Cell Viability Assay (Promega Corporation) in an amount equivalent to that of the culture solution was added, and stirred using a plate mixer. The microplate was left to stand at room temperature for 10 minutes, and thereafter the amount of emission was measured by using a plate reader (PerkinElmer).
Cell survival rates in wells with derivative A were calculated by using the following formula.
[formula] • a: Mean value of amounts of emission from wells with derivative A • b: Mean value of amounts of emission from wells with medium • IC50 values were calculated by using the following formula. […]
Cell survival rates in wells with derivative A added together with 5 nM talazoparib were calculated by using the following formula. […]

On to `Cn1ncnc1[C@H]1c2n[nH]c(=O)c3cc(F)cc(c23)N[C@@H]1c1ccc(F)cc1` [talazoparib], for which the tumor growth-suppressing effect result in assay [1] (talazoparib 0.8 mg/kg oral for 5 days from Day 0, JIMT-1) is “No tumor growth-suppressing effect”. Further, the inhibition at 0.005 µM in assay [2] (144 h, 5 nM talazoparib alone, SK-OV-3, 6 days) was < 10%. Regarding `COc1ccc(C2=CN3C(=O)c4cc(OC)c(OCCCCCOc5cc6c(cc5OC)C(=O)N5CC7(CC7)C[C@H]5C=N6)cc4NC[C@@H]3C2)cc1` [derivative A, (11a′S)-7′-Methoxy-8′-[(5-{[(11aS)-7-methoxy-2-(4-methoxyphenyl)-5-oxo-5,10,11,11a-tetrahydro-1H-pyrrolo[2,1-c][1,4]benzodiazepin-8-yl]oxy}pentyl)oxy]-1′,11a′-dihydro-5′H-spiro[cyclopropane-1,2′-pyrrolo[2,1-c][1,4]benzodiazepine]-5′-one], the IC50 is 8.1 pM in assay [2] (read-out: IC50, growth-suppressing effect, added singly, SK-OV-3, 6 days) and 4.6 pM in assay [2] (read-out: IC50, growth-suppressing effect, added together with 5 nM talazoparib, SK-OV-3, 6 days). As for `O=C(c1cc(Cc2n[nH]c(=O)c3ccccc23)ccc1F)N1CCN(C(=O)C2CC2)CC1` [olaparib, reference compound], in assay [1] (olaparib 50 mg/kg i.p. for 5 days from Day 0, JIMT-1), the tumor growth-suppressing effect result is on record as “No tumor growth-suppressing effect”.
